Assay results: paper PMC10033419, “Blocking NS3–NS4B interaction inhibits dengue virus in non-human primates” (Nature, 2023)

Experiments:
Experiment in all cases: microbe, parasite or virus in culture
Format in all cases: cell-based
[1] = test system: DENV-2 Asian II Papua New Guinea; settings: Dengue virus, DENV2, Vero C1008
Method: (§1) A total of 20 DENV strains, representing the available genotypes within the four DENV serotypes, were used in the in vitro genotype panel, from which 19 viruses were described previously in ref. [3] and one additional virus, DENV-1/45AZ5 (ref. [54]), was added.
(§2) A potential toxic effect on host cells was tested in parallel, while omitting virus infection, using the MTS/PMS method (Promega) for Vero cells, or by high-content imaging for C6/36 cells, as described previously. […] RT–qPCR data were analysed using the QuantStudio 12K Flex software (v.1.2.3) or SDS v.1.2 Applied Biosystems software. Inhibition values for antiviral molecules were plotted using KaleidaGraph plotting software (v.4.03, Synergy Software).

DENV-4 G1 India = settings: Dengue virus, DENV4, Vero C1008
Method: as §1, §2

[2] = test system: DENV-2 Cosmopolitan France - Toulon; settings: Dengue virus, DENV2, Vero C1008
Method: as §1, §2

[3] = two of three values below threshold

SMILES: COc1cc(N[C@H](C(=O)c2c[nH]c3ccc(OC(F)(F)F)cc23)c2ccc(Cl)cc2OC)cc(S(C)(=O)=O)c1 [JNJ-1802]
- EC90 [1]: 0.19 ± 0.1 nM
- EC50 ([1]; two of two values below threshold): < 0.04 nM
- EC90 (DENV-4 G1 India): 0.762 ± 0.095 nM
- EC50 (DENV-4 G1 India; [3]): < 0.09 nM
- EC90 ([2]; one of three values below threshold): 0.28 nM
- EC50 [2, 3]: < 0.0443 nM
